From patent US20240415790A1, “A COMPOSITION FOR USE IN THE TREATMENT OF INTERVERTEBRAL DISC HERNIATION” (STAYBLE THERAPEUTICS AB, priority 2020, published 2024)

Tested on: porcine lumbar spine (L3/4 IVD)
Assay: Flexural rigidity of the isolated porcine lumbar spine after intradiscal LA (series 1)
Type: in vivo, pig
Conditions: 28 days
Experimental: The pigs were pre-medicated by intramuscular injection of dexmedetomidin (Domitor®vet, Orion Pharma, Sollentuna, Sweden) and a commercial mixture of zolazepam and tiletamine (Zoletil®vet 100, Virbac, Carros, France) in conventional doses. Anesthesia was maintained by buprenophine ([…], Orion Pharma) 0.03 mg/kg intramuscularly, carpofen (Rimadyl®vet, Orion Pharma) 4 mg/kg intravenously and isoflurane ([…] Pharma AB, Stockholm, Sweden) using a Servo 900 respirator (Siemens, Munich, Germany). Before recovering from anesthesia, atipamezol (Antisedan®vet, Orion Pharma) was given intramuscularly. On the first three days after surgery the pigs received oral carprofen 2 mg/kg twice daily. The pigs were placed on the right side. […] The concentration was determined based on the pilot experiments on the effects of LA on collagen secretion from human NP cells (as described in WO 2017/046030). […] The height and width of normally appearing NP (FIG. 6a) in the anteroposterior (short vertical double arrow) and bilateral (short horizontal double arrow) directions, respectively, were measured and expressed in relation to the height (long vertical double arrow), and width (long horizontal double arrow) of the IVD. […] The distances between the lateral processes of the vertebrae cranially and caudally to the injected IVD was measured with a caliper at full ipsi- or contralateral flexion. […]

CC(O)C(=O)O (centres unmarked) [LA, lactic acid]
Flexural rigidity (mm, mean ± SD) (pig L3/4 IVD, 0.2 mL LA 120 mg/mL intradiscal, n=6, difference of process distances at full flexion (lower = stiffer)): 2.7 ± 1.1 mm | Flexural rigidity, LA- vs placebo-injected and naive IVDs (pig, LA 120 mg/mL): marked difference in flexural rigidity
